For six compounds, IC50, Ki and EC90 results are on record in patent US20230157998A1, “Methods of Inhibiting SARS-CoV-2 Replication and Treating Corona Virus Disease 2019” (Pfizer Inc., priority 2020, published 2023).

One test deals with SARS-CoV-2 3CL protease (Severe acute respiratory syndrome coronavirus 2, UniProt P0DTD1). Description: biochemical. The note with it: for IC50: 15 nM enzyme, 60 min at 23° C.; for Ki: fit to the Morrison equation.
In a further test the test system is SARS-CoV-2. Description: Antiviral activity in HeLa-ACE2 cells (viral protein detection). The test is classed as cell-based. The settings on record: Severe acute respiratory syndrome coronavirus 2, compound alone.

At SARS-CoV-2 3CL protease, `CC(C)(C)C[C@H](NC(=O)[C@H]1CCCO1)C(=O)N[C@@H](C[C@@H]1CCNC1=O)C(=O)COC(=O)c1c(Cl)cccc1Cl` [(3S)-3-({4-methyl-N-[(2R)-tetrahydrofuran-2-ylcarbonyl]-L-leucyl}amino)-2-oxo-4-[(3S)-2-oxopyrrolidin-3-yl]butyl 2,6-dichlorobenzoate] displayed an IC50 of 17 nM and a Ki of 2.71 nM.
On to `COc1cccc2[nH]c(C(=O)N[C@@H](CC(C)C)C(=O)N[C@@H](C[C@@H]3CCNC3=O)C(=O)COC(=O)C3CC3)cc12` [(3S)-3-({N-[(4-methoxy-1H-indol-2-yl)carbonyl]-L-leucyl}amino)-2-oxo-4-[(3S)-2-oxopyrrolidin-3-yl]butyl cyclopropanecarboxylate], for which, on SARS-CoV-2 3CL protease, the IC50 amounted to 128 nM and the affinity, expressed as Ki, was 42.7 nM.
For `O=C(N[C@@H](CC1CC1)C(=O)N[C@@H](C[C@@H]1CCNC1=O)C(=O)c1nc2ccccc2s1)c1ccccn1` [H, N-((S)-1-(((S)-1-(benzo[d]thiazol-2-yl)-1-oxo-3-((S)-2-oxopyrrolidin-3-yl)propan-2-yl)amino)-3-cyclopropyl-1-oxopropan-2-yl)picolinamide], in that order: 8400 nM and 3050 nM.
On SARS-CoV-2 3CL protease, `COc1cccc2[nH]c(C(=O)N[C@@H](Cc3ccccc3)C(=O)N[C@@H](C[C@@H]3CCNC3=O)C(=O)CO)cc12` [I, N-((S)-1-(((S)-4-hydroxy-3-oxo-1-((S)-2-oxopyrrolidin-3-yl)butan-2-yl)amino)-1-oxo-3-phenylpropan-2-yl)-4-methoxy-1H-indole-2-carboxamide] returned an IC50 of 375 nM and a Ki of 139 nM.
For `CC(C)(C)C[C@H](NC(=O)c1cc2ccccc2[nH]1)C(=O)N[C@@H](C[C@@H]1CCNC1=O)C(=O)CO` [N-((1S)-1-{[((1S)-3-hydroxy-2-oxo-1-{[(3S)-2-oxopyrrolidin-3-yl]methyl}propyl)amino]carbonyl}-3,3-dimethylbutyl)-1H-indole-2-carboxamide], in that order: 24 nM and 2.81 nM.
Compound `CCC(CC)COC(=O)[C@H](C)N[P@](=O)(OC[C@H]1O[C@@](C#N)(c2ccc3c(N)ncnn23)[C@H](O)[C@@H]1O)Oc1ccccc1` [remdesivir, reference compound] returned an EC90 with SARS-CoV-2 of 168 nM.
